These are literature values, as cited in patent US20050124592A1 (priority 2002, published 2005).

Read-outs that look alike come from different tables or passages of the source.

For one data set, the target named is T1, progesterone receptor (Homo sapiens, UniProt P06401).
T1 sequence (P06401 1-933): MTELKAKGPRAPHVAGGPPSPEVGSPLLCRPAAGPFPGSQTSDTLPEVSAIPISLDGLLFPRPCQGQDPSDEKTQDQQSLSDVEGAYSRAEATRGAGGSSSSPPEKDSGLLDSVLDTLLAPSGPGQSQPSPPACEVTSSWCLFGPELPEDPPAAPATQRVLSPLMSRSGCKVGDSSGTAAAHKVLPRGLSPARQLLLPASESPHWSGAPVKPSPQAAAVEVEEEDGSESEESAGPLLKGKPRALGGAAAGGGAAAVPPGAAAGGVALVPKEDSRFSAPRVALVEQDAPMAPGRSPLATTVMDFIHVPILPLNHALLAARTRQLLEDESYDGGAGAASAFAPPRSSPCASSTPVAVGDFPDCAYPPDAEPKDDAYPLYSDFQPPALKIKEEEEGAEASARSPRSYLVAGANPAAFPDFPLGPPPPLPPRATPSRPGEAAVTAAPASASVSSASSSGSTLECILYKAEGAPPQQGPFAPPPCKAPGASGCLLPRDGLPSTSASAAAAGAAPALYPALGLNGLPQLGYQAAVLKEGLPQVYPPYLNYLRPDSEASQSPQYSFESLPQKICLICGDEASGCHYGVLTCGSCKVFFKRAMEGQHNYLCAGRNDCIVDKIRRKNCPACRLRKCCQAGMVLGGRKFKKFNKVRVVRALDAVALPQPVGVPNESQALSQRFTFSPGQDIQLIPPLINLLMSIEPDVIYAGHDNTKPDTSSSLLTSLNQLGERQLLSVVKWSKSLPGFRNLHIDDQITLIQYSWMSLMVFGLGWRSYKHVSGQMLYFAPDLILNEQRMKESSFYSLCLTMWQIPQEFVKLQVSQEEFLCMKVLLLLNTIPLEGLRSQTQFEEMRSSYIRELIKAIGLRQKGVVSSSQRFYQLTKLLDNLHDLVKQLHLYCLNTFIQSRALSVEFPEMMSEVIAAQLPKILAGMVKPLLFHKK

`C#C[C@]1(O)CC[C@H]2[C@@H]3[C@H](C)CC4=C(CCC(=O)C4)[C@H]3CC[C@@]21C` [tibolone, (7α,17α)-17-hydroxy-7-methyl-19-nor-17-pregn-5(10)-en-20-yn-3-one]: the progestagenic activity entry at progesterone receptor is reported as “weak”. Moreover, the values for the estrogenic activity result in the data set with estrogen receptor and in the data set on estrogen receptor (listed as Tibolone) were “hardly has an estrogenic activity” and “weak”, respectively.
